ChEMBL document CHEMBL4651402, “Screening of ~5500 FDA-approved drugs and clinical candidates for anti-SARS-CoV-2 activity” (2021)
pIC50: −log10 of the molar value. Counter-ions that a name gives are not always drawn.

Tested on: SARS-CoV-2
Assay: microbe, parasite or virus in culture
Conditions: Severe acute respiratory syndrome coronavirus 2, Vero C1008, 48 h; for IC50: read-out: pIC50 (converted)

SMILES: CN(C)Cc1ccc(S(=O)(=O)n2ccc(/C=C/C(=O)NO)c2)cc1 [RESMINOSTAT]
- pIC50: < 4.70
- IC50: > 20 µM

SMILES: Oc1cccc(O)c1 [RESORCINOL]
- pIC50: < 4.70
- IC50: > 20 µM

SMILES: Oc1ccc(/C=C/c2cc(O)cc(O)c2)cc1 [RESVERATROL]
- pIC50: < 4.70
- IC50: > 20 µM

SMILES: CCCCCC(O)c1cccc(OCc2ccc3ccccc3n2)c1 (stereo not given) [REV-5901]
- pIC50: < 4.70
- IC50: > 20 µM

SMILES: CC(C)(C(=O)NCC(F)(F)C(F)(F)F)C(=O)N[C@@H]1C(=O)Nc2ccccc2-c2ccccc21 [RG-4733]
- pIC50: < 4.70
- IC50: > 20 µM

SMILES: COC1=C(O)C(=O)c2c(cc3oc(C(C)=O)c(O)c3c2O)C1=O [RHODOCLADONIC ACID]
- pIC50: < 4.70
- IC50: > 20 µM

SMILES: NC(=O)c1ncn([C@@H]2O[C@H](CO)[C@@H](O)[C@H]2O)n1 [RIBAVIRIN]
- pIC50: < 4.30
- IC50: > 50.1 µM

SMILES: NC[C@H]1O[C@H](O[C@H]2[C@H](O[C@@H]3O[C@H](CO)[C@@H](O)[C@H]3O)[C@@H](O)[C@H](N)C[C@@H]2N)[C@H](N)[C@@H](O)[C@@H]1O [RIBOSTAMYCIN]
- pIC50: < 4.70
- IC50: > 20 µM

SMILES: COc1ccn(C)c(=O)c1C#N [RICININE]
- pIC50: < 4.70
- IC50: > 20 µM

SMILES: O=C(CCCCCCNC(=O)c1cnc(N(c2ccccc2)c2ccccc2)nc1)NO [RICOLINOSTAT]
- pIC50: < 4.70
- IC50: > 20 µM

SMILES: O=C(O)CCCCO/N=C(/c1cccnc1)c1cccc(C(F)(F)F)c1 [RIDOGREL]
- pIC50: < 4.70
- IC50: > 20 µM

SMILES: CO[C@H]1/C=C/O[C@@]2(C)Oc3c(C)c(O)c4c(c3C2=O)C2=NC3(CCN(CC(C)C)CC3)NC2=C(NC(=O)/C(C)=C\C=C\[C@H](C)[C@H](O)[C@@H](C)[C@@H](O)[C@@H](C)[C@H](OC(C)=O)[C@@H]1C)C4=O [RIFABUTIN]
- pIC50: < 4.70
- IC50: > 20 µM

SMILES: CO[C@H]1/C=C/O[C@@]2(C)Oc3c(C)c(O)c4c(O)c(c(/C=N/N5CCN(C)CC5)c(O)c4c3C2=O)NC(=O)/C(C)=C\C=C\[C@H](C)[C@H](O)[C@@H](C)[C@@H](O)[C@@H](C)[C@H](OC(C)=O)[C@@H]1C [RIFAMPIN]
- pIC50: < 4.70
- IC50: > 20 µM

SMILES: COc1cc(OC)c(/C=C/S(=O)(=O)Cc2ccc(OC)c(NCC(=O)O)c2)c(OC)c1 [RIGOSERTIB]
- pIC50: < 4.70
- IC50: > 20 µM

SMILES: CN1CCN(C2=Cc3cc(Cl)ccc3/C(=C/C#N)c3ccccc32)CC1 [RILAPINE]
- pIC50: < 4.70
- IC50: > 20 µM

SMILES: CS(=O)(=O)CCCn1c(Cn2c(=O)n(CC(F)(F)F)c3ccncc32)cc2cc(Cl)ccc21 [RILEMATOVIR]
- pIC50: < 4.70
- IC50: > 20 µM

SMILES: C1COC(NC(C2CC2)C2CC2)=N1 [RILMENIDINE]
- pIC50: < 4.70
- IC50: > 20 µM

SMILES: Nc1nc2ccc(OC(F)(F)F)cc2s1 [RILUZOLE]
- pIC50: < 4.70
- IC50: > 20 µM

SMILES: CC(N)C12CC3CC(CC(C3)C1)C2 (stereo not given) [RIMANTADINE]
- pIC50: < 4.70
- IC50: > 20 µM

SMILES: N[C@@H]1c2cccnc2[C@H](OC(=O)N2CCC(n3c(=O)[nH]c4ncccc43)CC2)CC[C@H]1c1cccc(F)c1F [RIMEGEPANT]
- pIC50: < 4.70
- IC50: > 20 µM

SMILES: CCC(=O)[C@@]1(C)[C@H](C)C[C@H]2[C@@H]3CCC4=CC(=O)C=C[C@]4(C)[C@H]3[C@@H](O)C[C@@]21C [RIMEXOLONE]
- pIC50: < 4.70
- IC50: > 20 µM

SMILES: Oc1ccc(C(O)C2CCCCN2)cc1O (stereo not given) [RIMITEROL]
- pIC50: < 4.70
- IC50: > 20 µM

SMILES: Cc1c(C(=O)NN2CCCCC2)nn(-c2ccc(Cl)cc2Cl)c1-c1ccc(Cl)cc1 [RIMONABANT]
- pIC50: < 4.70
- IC50: > 20 µM

SMILES: O=P(O)(O)C(O)(Cc1cccnc1)P(=O)(O)O [RISEDRONIC ACID]
- pIC50: < 4.70
- IC50: > 20 µM

SMILES: Cc1ccc(COC(=O)N2CC[C@H](CNc3ncccn3)[C@H](F)C2)cc1 [RISLENEMDAZ]
- pIC50: < 4.70
- IC50: > 20 µM

SMILES: CCCOC(=O)c1ccc(N)cc1 [RISOCAINE]
- pIC50: < 4.70
- IC50: > 20 µM

SMILES: Cc1nc2n(c(=O)c1CCN1CCC(c3noc4cc(F)ccc34)CC1)CCCC2 [RISPERIDONE]
- pIC50: < 4.70
- IC50: > 20 µM

SMILES: Cc1nc2sccn2c(=O)c1CCN1CCC(=C(c2ccc(F)cc2)c2ccc(F)cc2)CC1 [RITANSERIN]
- pIC50: < 4.70
- IC50: > 20 µM

SMILES: C=CC(=O)N1C[C@H](Nc2ncnc3[nH]ccc23)CC[C@@H]1C [RITLECITINIB]
- pIC50: < 4.70
- IC50: > 20 µM

SMILES: CC(NCCc1ccc(O)cc1)C(O)c1ccc(O)cc1 (stereo not given) [RITODRINE HYDROCHLORIDE]
- pIC50: < 4.70
- IC50: > 20 µM

SMILES: CC(C)c1nc(CN(C)C(=O)N[C@H](C(=O)N[C@@H](Cc2ccccc2)C[C@H](O)[C@H](Cc2ccccc2)NC(=O)OCc2cncs2)C(C)C)cs1 [RITONAVIR]
- pIC50: < 4.30
- IC50: > 50.1 µM

SMILES: CCN(C)C(=O)Oc1cccc([C@H](C)N(C)C)c1 [RIVASTIGMINE]
- pIC50: < 4.70
- IC50: > 20 µM

SMILES: COCc1cccc(C[C@H](O)/C=C/[C@H]2[C@H](O)CC(=O)[C@@H]2CCSCCCC(=O)OC)c1 [RIVENPROST]
- pIC50: < 4.70
- IC50: > 20 µM

SMILES: N#CC1(c2ccc(NC(=O)c3cccnc3NCc3ccncc3)cc2)CCCC1 [RIVOCERANIB]
- pIC50: < 4.70
- IC50: > 20 µM

SMILES: CN(C)CCc1c[nH]c2ccc(Cn3cncn3)cc12 [RIZATRIPTAN]
- pIC50: < 4.70
- IC50: > 20 µM

SMILES: [N-]=[N+]=N[C@]1(CO)O[C@@H](n2ccc(N)nc2=O)[C@@H](F)[C@@H]1O [RO-0622]
- pIC50: < 4.70
- IC50: > 20 µM

SMILES: CCCCOc1cc(CC2CNC(=O)N2)ccc1OC (stereo not given) [RO-201724]
- pIC50: < 4.70
- IC50: > 20 µM

SMILES: C=CC(=O)Nc1cccc(Nc2nc(Nc3ccc(N4CCN(C(C)=O)CC4)cc3OC)ncc2C(F)(F)F)c1 [ROCILETINIB]
- pIC50: < 4.70
- IC50: > 20 µM

SMILES: CS(=O)(=O)c1ccc(C2=C(c3ccccc3)C(=O)OC2)cc1 [ROFECOXIB]
- pIC50: < 4.70
- IC50: > 20 µM

SMILES: O=C(Nc1c(Cl)cncc1Cl)c1ccc(OC(F)F)c(OCC2CC2)c1 [ROFLUMILAST]
- pIC50: < 4.70
- IC50: > 20 µM

SMILES: COCc1c(-c2cc3cc(C)cc(OC)c3s2)c2c(N)ncnn2c1CN1CCNC(=O)C1 [ROGARATINIB]
- pIC50: < 4.70
- IC50: > 20 µM

SMILES: C[C@@H](OC[C@@]1(c2ccccc2)CC[C@]2(CCC(=O)N2)CN1)c1cc(C(F)(F)F)cc(C(F)(F)F)c1 [ROLAPITANT]
- pIC50: < 4.70
- IC50: > 20 µM

SMILES: COc1ccc(C2CNC(=O)C2)cc1OC1CCCC1 (stereo not given) [ROLIPRAM]
- pIC50: < 4.70
- IC50: > 20 µM

SMILES: Cn1c([N+](=O)[O-])cnc1COC(N)=O [RONIDAZOLE]
- pIC50: < 4.70
- IC50: > 20 µM

SMILES: CCCN(CCC)CCc1cccc2c1CC(=O)N2 [ROPINIROLE]
- pIC50: < 4.70
- IC50: > 20 µM

SMILES: CN(C(=O)c1c(O)c2ccccc2n(C)c1=O)c1ccccc1 [ROQUINIMEX]
- pIC50: < 4.70
- IC50: > 20 µM

SMILES: CN(CCOc1ccc(CC2SC(=O)NC2=O)cc1)c1ccccn1 (stereo not given) [ROSIGLITAZONE]
- pIC50: < 4.70
- IC50: > 20 µM

SMILES: O=C(/C=C/c1ccc(O)c(O)c1)O[C@H](Cc1ccc(O)c(O)c1)C(=O)O [ROSMARINIC ACID]
- pIC50: < 4.70
- IC50: > 20 µM

SMILES: CCn1cc(C(=O)O)c(=O)c2ccc(-c3ccncc3)cc21 [ROSOXACIN]
- pIC50: < 4.70
- IC50: > 20 µM

SMILES: C[C@]12CC[C@H](O)C[C@H]1CC[C@@H]1[C@@H]2CC[C@]2(C)[C@@](O)(c3ccoc3)CC[C@]12O [ROSTAFUROXIN]
- pIC50: < 4.70
- IC50: > 20 µM

SMILES: CN(C)CCO[C@@H](c1ccc(Cl)cc1)c1ccccn1 [ROTOXAMINE]
- pIC50: < 4.70
- IC50: > 20 µM

SMILES: Cc1nc(C(=O)NCC(=O)O)c(O)c2ccc(Oc3ccccc3)cc12 [ROXADUSTAT]
- pIC50: < 4.70
- IC50: > 20 µM

SMILES: O=[N+]([O-])c1cc([As](=O)(O)O)ccc1O [ROXARSONE]
- pIC50: < 4.70
- IC50: > 20 µM

SMILES: Oc1ccc2[nH]cc(CCCCN3CC=C(c4ccccc4)CC3)c2c1 [ROXINDOLE]
- pIC50: < 4.70
- IC50: > 20 µM

SMILES: CC[C@H]1OC(=O)[C@H](C)[C@@H](O[C@H]2C[C@@](C)(OC)[C@@H](O)[C@H](C)O2)[C@H](C)[C@@H](O[C@@H]2O[C@H](C)C[C@H](N(C)C)[C@H]2O)[C@](C)(O)C[C@@H](C)/C(=N\OCOCCOC)[C@H](C)[C@@H](O)[C@]1(C)O [ROXITHROMYCIN]
- pIC50: < 4.70
- IC50: > 20 µM

SMILES: CN1C(=O)CC2(CCN(CCCC(=O)c3ccc(F)cc3)CC2)C1=O [ROXOPERONE]
- pIC50: < 4.70
- IC50: > 20 µM

SMILES: CC[C@@]1(O)C(=O)OCc2c1cc1n(c2=O)Cc2cc3c([N+](=O)[O-])cccc3nc2-1 [RUBITECAN]
- pIC50: < 4.70
- IC50: > 20 µM

SMILES: CN(C)C[C@@H]1CCn2cc(c3ccccc32)C2=C(C(=O)NC2=O)c2cn(c3ccccc23)CCO1 [RUBOXISTAURIN]
- pIC50: < 4.70
- IC50: > 20 µM

SMILES: CNCc1ccc(-c2[nH]c3cc(F)cc4c3c2CCNC4=O)cc1 [RUCAPARIB]
- pIC50: < 4.70
- IC50: > 20 µM

SMILES: NC(=O)c1cn(Cc2c(F)cccc2F)nn1 [RUFINAMIDE]
- pIC50: < 4.70
- IC50: > 20 µM

SMILES: N#CC[C@H](C1CCCC1)n1cc(-c2ncnc3[nH]ccc23)cn1 [RUXOLITINIB]
- pIC50: < 4.70
- IC50: > 20 µM

SMILES: CCOC(=O)c1cncn1[C@@H](C)c1ccccc1 [S-ETOMIDATE]
- pIC50: < 4.70
- IC50: > 20 µM

SMILES: CN(c1nc2ccccc2s1)C1CCN(CC(O)COc2ccc(F)cc2)CC1 (stereo not given) [SABELUZOLE]
- pIC50: < 4.70
- IC50: > 20 µM

SMILES: O=C1NS(=O)(=O)c2ccccc21 [SACCHARIN]
- pIC50: < 4.70
- IC50: > 20 µM

SMILES: CCOC(=O)[C@H](C)C[C@@H](Cc1ccc(-c2ccccc2)cc1)NC(=O)CCC(=O)O [SACUBITRIL]
- pIC50: < 4.70
- IC50: > 20 µM

SMILES: OCC(O)Cc1ccc2c(c1)OCO2 (stereo not given) [SAFROLGLYCOL]
- pIC50: < 4.70
- IC50: > 20 µM

SMILES: CC(=O)NC(=O)c1ccccc1O [SALACETAMIDE]
- pIC50: < 4.70
- IC50: > 20 µM

SMILES: OCc1ccccc1O[C@@H]1O[C@H](CO)[C@@H](O)[C@H](O)[C@H]1O [SALICIN]
- pIC50: < 4.70
- IC50: > 20 µM

SMILES: NC(=O)c1ccccc1O [SALICYLAMIDE]
- pIC50: < 4.70
- IC50: > 20 µM

SMILES: O=C(Nc1ccccc1)c1ccccc1O [SALICYLANILIDE]
- pIC50: < 4.70
- IC50: > 20 µM
